Experiments:
[1] = system: SK-MEL-28 melanoma cell line; assay: SK-MEL-28 cell line toxicity (Cell titer Glo viability); format: cell-based; settings: SK-MEL-28, 72 h
Description: (§1) Culture medium were purchased from ATCC, USA.
• General cell culture reagents and plastic. • 384-Well Flat white Poly-styrene TC-Treated Microplates (Corning). • 384 well poly-propylene plates (acoustic grade, Labcyte) for compound dilution. • Cell titer Glo luminescent Cell Viability reagent (Cat #G7571, Promega).
(§2) 90 nL DMSO is added to control wells. […] Luminescence was then recorded using Synergy Neo2Multi-mode Reader.

[2] = system: HL-60 acute promyelocytic leukemia cell line; assay: HL-60 cell line toxicity (Cell titer Glo viability); settings: HL-60, 72 h
Description: The half maximal inhibition concentration (IC50) for each compound was determined by harvesting cells during the logarithmic growth period and then counting cell number using hemocytometer. […] Then, using a Biomek FX, test articles were serially diluted (10 mM top, 3× dilution intervals) along with a reference inhibitor (1 mM top, 3× dilution intervals) in acoustic grade Labcyte plate. Then, using an acoustic dispenser (Labcyte550), compounds were added as serially diluted to plate with cells: 90 nL of serially diluted compounds per well. 90 nL DMSO is added to control wells. Test plates were incubated for 72 h in the humidified incubator at 37° C. with 5% CO2. 25 μL of reconstituted Cell titer Glo reagent was added to each well. Each test plate was then incubated for 20 min at room temperature. Luminescence was then recorded using Synergy Neo2Multi-mode Reader.
In order to calculate intersect IC50, a dose-response curve was fitted using nonlinear regression model with a sigmoidal dose response.
The formula for calculating surviving rate is shown below, and the intersect IC50 was calculated according to the dose-response curve generated by the software:
The compounds of interest were assessed cell viability in the HL-60 acute promyelocytic leukemia cell line (ATCC® CCL-240). […] Culture medium were purchased from ATCC, USA.

[3] = system: PC3 prostate adenocarcenoma cell line; assay: PC3 cell line toxicity (Cell titer Glo viability); format: cell-based; settings: PC3, 72 h
Description: as §2, §1

[4] = target: T1, cannabinoid receptor 1 (CNR1) (Homo sapiens, UniProt P21554); assay: CB1 receptor agonist assay (cAMP Hunter eXpress, CNR1 CHO-K1 cells); format: cell-based; settings: agonist mode, Forskolin-stimulated cAMP
T1 construct: host or cells: CHO-K1
T1 sequence (P21554 whole entry): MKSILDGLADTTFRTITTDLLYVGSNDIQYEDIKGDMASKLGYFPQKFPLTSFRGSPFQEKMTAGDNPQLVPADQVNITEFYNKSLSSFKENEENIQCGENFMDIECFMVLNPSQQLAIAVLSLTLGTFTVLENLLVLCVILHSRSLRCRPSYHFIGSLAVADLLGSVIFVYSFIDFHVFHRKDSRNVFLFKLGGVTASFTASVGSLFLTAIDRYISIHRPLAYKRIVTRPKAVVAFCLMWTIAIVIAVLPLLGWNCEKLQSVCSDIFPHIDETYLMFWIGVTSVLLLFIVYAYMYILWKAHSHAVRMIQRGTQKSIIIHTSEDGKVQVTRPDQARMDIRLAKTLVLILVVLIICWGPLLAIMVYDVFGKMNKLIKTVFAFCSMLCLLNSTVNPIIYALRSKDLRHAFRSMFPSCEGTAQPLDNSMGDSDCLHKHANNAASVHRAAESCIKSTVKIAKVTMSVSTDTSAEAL
Description: (§3) The assays were performed in cAMP Hunter eXpress cells engineered to overexpress naturally Gi/Go-coupled wildtype cannabinoid receptor 1 (CNR1) or cannabinoid receptor 2 (CNR2) in CHO-K1 cell type. In these cells, CB1 and/or […] agonists inhibit production of intracellular cAMP in response to stimulation with Forskolin. cAMP levels are determined using luminogenic detection reagents provided with the Hunter eXpress cAMP detection kit.
(§4) • Assay ready CNR1 CHO-K1 cells were obtained from Eurofins/Discover X, cat #95-0071E2 • Assay ready CNR2 CHO-K1 cells were obtained from Eurofins/Discover X, cat #95-0183E2 • Hunter eXpress cAMP detection kit was also from Discover X. The kit includes all cAMP detection reagents, Forskolin, complete cell plating medium and cell assay buffer.
The Assay-Ready CNR1 CHO-K1 or CNR2 CHO-K1 cells were thawed and re-suspended in pre-warmed Assay Complete plating medium and inoculated into 96 well plate at a density of 30,000 cells in 100 μL. The plates with cells were incubated for 24 h at 37° C. in 5% CO2. […] The cells were stimulated with the Forskolin/compound buffer for 30 min. […] The plate was read on Biotek Synergy Neo2 reader in luminescent mode. […] Relative luminescence units (RLUs) were plotted against compound concentration to determine apparent EC50 values of the agonist compounds.

[5] = target: T2, cannabinoid receptor 2 (CNR2) (Homo sapiens, UniProt P34972); assay: CB2 receptor agonist assay (cAMP Hunter eXpress, CNR2 CHO-K1 cells); format: cell-based
T2 construct: host or cells: CHO-K1
T2 sequence (P34972 whole entry): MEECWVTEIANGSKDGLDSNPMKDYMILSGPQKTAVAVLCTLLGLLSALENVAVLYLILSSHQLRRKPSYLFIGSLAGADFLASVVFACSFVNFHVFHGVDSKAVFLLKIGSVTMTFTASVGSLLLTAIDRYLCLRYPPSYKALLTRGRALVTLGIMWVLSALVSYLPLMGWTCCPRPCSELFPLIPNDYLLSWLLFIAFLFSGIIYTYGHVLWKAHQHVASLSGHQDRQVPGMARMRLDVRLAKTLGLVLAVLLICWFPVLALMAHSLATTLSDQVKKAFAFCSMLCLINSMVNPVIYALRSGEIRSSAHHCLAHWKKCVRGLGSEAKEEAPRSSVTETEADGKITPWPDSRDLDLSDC
Description: as §3, §4
The Assay-Ready CNR1 CHO-K1 or CNR2 CHO-K1 cells were thawed and re-suspended in pre-warmed Assay Complete plating medium and inoculated into 96 well plate at a density of 30,000 cells in 100 μL. The plates with cells were incubated for 24 h at 37° C. in 5% CO2. […] The cells were stimulated with the Forskolin/compound buffer for 30 min. After stimulation, 15 μL of cAMP antibody reagent and 60 μL of cAMP working detection solution were added to the cells and, the cells were incubated for 1 h at room temperature. After 1 h incubation, 60 μL of cAMP Solution A was added to the wells and the plate was incubated for 3 h at room temperature. The plate was read on Biotek Synergy Neo2 reader in luminescent mode. CB1 and CB2 agonists should reduce cAMP production in response to Forskilin. Relative luminescence units (RLUs) were plotted against compound concentration to determine apparent EC50 values of the agonist compounds.

CN[C@@H]1C[C@H]2O[C@@](C)([C@@H]1OC)n1c3ccccc3c3c4c(c5c6ccccc6n2c5c31)C(=O)NC4 [Staurosporine, staurosporine, reference compound]
IC50 ([1]; Homo sapiens): ~210 nM | Cell Viability (%) ([1]; 0.041 uM): 70.0% | Cell Viability (%) ([1]; 0.12 uM): 53.9% | Cell Viability (%) ([1]; 0.37 uM): 41.1% | Cell Viability (%) ([1]; 1.1 uM): 33.0% | Cell Viability (%) ([1]; 3.3 uM): 17.3% | Cell Viability (%) ([1]; 10 uM): 8.55% | Cell Viability (%) ([1]; 30 uM): 8.85% | Cell Viability (%) ([2]; 0.014 uM): 66.6% | Cell Viability (%) ([2]; 0.041 uM): 36.3% | Cell Viability (%) ([2]; 0.12 uM): 27.7% | Cell Viability (%) ([2]; 0.37 uM): 18.7% | Cell Viability (%) ([2]; 1.1 uM): 13.9% | Cell Viability (%) ([2]; 3.3 uM): 11.7% | Cell Viability (%) ([2]; 10 uM): 10.4% | Cell Viability (%) ([2]; 30 uM): 9.6% | IC50 ([3]; Homo sapiens, PC-3): ~4 nM | Cell Viability (%) ([3]; 0.0015 uM): 67.1% | Cell Viability (%) ([3]; 0.0046 uM): 43.2% | Cell Viability (%) ([3]; 0.014 uM): 34.5% | Cell Viability (%) ([3]; 0.041 uM): 12.7% | Cell Viability (%) ([3]; 0.12 uM): 10.3% | Cell Viability (%) ([3]; 0.37 uM): 9.5% | Cell Viability (%) ([3]; 1.1 uM): 8.4% | Cell Viability (%) ([3]; 3.3 uM): 8.1% | Cell Viability (%) ([3]; 10 uM): 6.8% | Cell Viability (%) ([3]; 30 uM): 7.1%

CCCCCc1cc(O)c2c(c1)OC(C)(C)C1CCC(CO)=CC21 (stereo not drawn) [11-hydroxy-THC]
IC50 [4]: 1 nM | IC50 ([5]; agonist mode, Forskolin-stimulated cAMP, CNR2 CHO-K1 cells): 51 nM | Selectivity for CB2 over CB1 (fold) ([5]; ratio of agonist IC50 values): 0.02 fold

From US20250073184A1, “CANNABIGEROQUINONE COMPOUNDS, COMPOSITIONS INCLUDING SUCH COMPOUNDS, AND USES OF SUCH COMPOUNDS AND COMPOSITIONS” (Juva Life, Inc., priority 2021, published 2025)
